In patent US11352340B2, “Pyridine and pyridimine compounds as PI3K-gamma inhibitors” (Incyte Corporation, priority 2016, dated 2022) one finds IC50 data, which are given here for 24 compounds.

Structures can show the parent of a compound that is named as a salt. Bounds are passed on as bounds.

In assay [1] the target is PI3Kγ (p110γ) Recombinant Human Protein (Homo sapiens (Human), UniProt P48736). Kind of assay: PI3K-γ Scintillation Proximity Assay. As to conditions: read-out: PI3K-gamma SPA IC50. The format is biochemical. Summed up: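 Recombinant human p110γ (13 nM) with 20 μM PIP2 and 2 μM ATP plus 0.5 μCi [γ-33P]ATP in 20 mM MOPS pH 6.7, 10 mM MgCl2, 5 mM DTT, 0.03% CHAPS, 2% DMSO, 120 min at room temperature. Product captured on WGA SPA beads and counted; IC50 fitted from % of solvent control versus log concentration.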
Chain of PI3Kγ (p110γ) Recombinant Human Protein (P48736 whole entry): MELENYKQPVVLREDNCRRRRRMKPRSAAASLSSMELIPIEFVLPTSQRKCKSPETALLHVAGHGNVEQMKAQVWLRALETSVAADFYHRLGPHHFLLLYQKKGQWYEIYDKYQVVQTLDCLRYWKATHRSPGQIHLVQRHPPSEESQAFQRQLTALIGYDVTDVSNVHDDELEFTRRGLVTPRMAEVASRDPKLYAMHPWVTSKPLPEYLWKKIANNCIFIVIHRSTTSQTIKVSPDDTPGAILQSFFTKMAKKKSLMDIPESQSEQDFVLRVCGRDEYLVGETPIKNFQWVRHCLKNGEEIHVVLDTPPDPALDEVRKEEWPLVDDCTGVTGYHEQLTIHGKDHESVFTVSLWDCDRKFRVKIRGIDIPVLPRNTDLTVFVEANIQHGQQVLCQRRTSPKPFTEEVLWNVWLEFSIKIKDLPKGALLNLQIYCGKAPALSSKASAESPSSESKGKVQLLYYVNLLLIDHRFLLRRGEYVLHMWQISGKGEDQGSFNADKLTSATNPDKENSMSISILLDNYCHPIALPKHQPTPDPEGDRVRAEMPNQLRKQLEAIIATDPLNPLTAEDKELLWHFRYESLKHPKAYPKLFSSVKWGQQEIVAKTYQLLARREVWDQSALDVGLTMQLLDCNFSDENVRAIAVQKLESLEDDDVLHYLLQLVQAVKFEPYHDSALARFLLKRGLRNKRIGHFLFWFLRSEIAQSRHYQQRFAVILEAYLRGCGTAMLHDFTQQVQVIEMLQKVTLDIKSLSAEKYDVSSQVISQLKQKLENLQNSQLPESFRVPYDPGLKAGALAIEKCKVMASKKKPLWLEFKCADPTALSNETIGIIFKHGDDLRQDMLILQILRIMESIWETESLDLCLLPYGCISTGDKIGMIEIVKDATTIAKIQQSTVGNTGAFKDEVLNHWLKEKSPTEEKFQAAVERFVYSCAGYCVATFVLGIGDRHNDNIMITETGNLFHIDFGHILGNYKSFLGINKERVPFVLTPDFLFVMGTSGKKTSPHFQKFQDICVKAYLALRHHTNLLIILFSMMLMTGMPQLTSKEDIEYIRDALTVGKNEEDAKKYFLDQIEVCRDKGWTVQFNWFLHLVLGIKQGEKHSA
In general terms: In a scintillation proximity assay essentially only radioactivity close to the scintillant gives light.

Assay [2] concerns the target PI3Kδ (p110δ/p85α) Recombinant Human Protein (Homo sapiens (Human), UniProt O00329). Kind of assay: PI3Kδ Scintillation Proximity Assay. The conditions noted are these: read-out: PI3K-delta SPA IC50. The format is biochemical. The procedure, abridged:
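Recombinant human p110δ/p85α (3.4 nM) phosphorylates 20 μM di-octanoyl PIP2 using 2 μM ATP spiked with [γ-33P]ATP, 120 min, room temperature, pH 6.7, 2% DMSO. Product measured by scintillation proximity; IC50 from dose-response fit.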

Assay [3] deals with Phosphorylated Ribosomal Protein S6 (RPS6) in THP-1 cells. Kind of assay: THP-1 RPS6 ELISA Assay. As to conditions: Homo sapiens, MCP-1 stimulated, phospho-RPS6 ELISA, read-out: THP p-RPS6 ELISA IC50. The class given is cell-based, Human. The procedure, abridged:
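Serum-starved THP-1 cells (2×10^5/well, RPMI) preincubated with compound 2 h at 37° C, then stimulated with 10 nM MCP-1 for 15 min. Lysates assayed by phospho-RPS6 ELISA, absorbance 450 nm (540 nm correction); IC50 from percent inhibition versus log concentration.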

Chain of PI3Kδ (p110δ/p85α) Recombinant Human Protein (O00329 whole entry): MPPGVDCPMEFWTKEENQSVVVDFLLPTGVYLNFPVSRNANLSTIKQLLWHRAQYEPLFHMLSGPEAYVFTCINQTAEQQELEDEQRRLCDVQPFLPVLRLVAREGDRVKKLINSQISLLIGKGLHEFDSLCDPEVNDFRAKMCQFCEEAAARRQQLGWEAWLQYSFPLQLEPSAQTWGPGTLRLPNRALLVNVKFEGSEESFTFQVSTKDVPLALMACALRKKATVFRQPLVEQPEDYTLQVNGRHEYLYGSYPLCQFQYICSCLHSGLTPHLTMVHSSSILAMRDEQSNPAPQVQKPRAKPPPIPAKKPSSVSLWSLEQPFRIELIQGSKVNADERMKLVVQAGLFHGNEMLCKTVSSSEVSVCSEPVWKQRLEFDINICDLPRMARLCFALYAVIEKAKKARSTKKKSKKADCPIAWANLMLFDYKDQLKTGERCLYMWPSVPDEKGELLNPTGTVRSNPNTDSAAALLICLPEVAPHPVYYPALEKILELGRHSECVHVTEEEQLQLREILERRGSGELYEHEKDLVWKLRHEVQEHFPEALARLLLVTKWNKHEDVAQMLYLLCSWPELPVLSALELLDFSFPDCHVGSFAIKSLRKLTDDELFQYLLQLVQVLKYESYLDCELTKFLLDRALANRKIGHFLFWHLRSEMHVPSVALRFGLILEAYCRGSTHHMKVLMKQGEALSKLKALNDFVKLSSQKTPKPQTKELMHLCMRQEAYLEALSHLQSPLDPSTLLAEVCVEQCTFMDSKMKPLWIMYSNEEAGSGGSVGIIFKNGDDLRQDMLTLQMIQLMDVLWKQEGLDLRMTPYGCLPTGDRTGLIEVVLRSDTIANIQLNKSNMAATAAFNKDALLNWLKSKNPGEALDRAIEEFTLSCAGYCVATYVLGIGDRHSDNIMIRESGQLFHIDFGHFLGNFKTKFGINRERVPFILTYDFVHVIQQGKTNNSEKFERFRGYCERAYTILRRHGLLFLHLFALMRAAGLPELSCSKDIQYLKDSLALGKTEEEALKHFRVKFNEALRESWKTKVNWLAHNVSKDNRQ
Chain of PI3Kδ (p110δ/p85α) Recombinant Human Protein (P27986 whole entry partner): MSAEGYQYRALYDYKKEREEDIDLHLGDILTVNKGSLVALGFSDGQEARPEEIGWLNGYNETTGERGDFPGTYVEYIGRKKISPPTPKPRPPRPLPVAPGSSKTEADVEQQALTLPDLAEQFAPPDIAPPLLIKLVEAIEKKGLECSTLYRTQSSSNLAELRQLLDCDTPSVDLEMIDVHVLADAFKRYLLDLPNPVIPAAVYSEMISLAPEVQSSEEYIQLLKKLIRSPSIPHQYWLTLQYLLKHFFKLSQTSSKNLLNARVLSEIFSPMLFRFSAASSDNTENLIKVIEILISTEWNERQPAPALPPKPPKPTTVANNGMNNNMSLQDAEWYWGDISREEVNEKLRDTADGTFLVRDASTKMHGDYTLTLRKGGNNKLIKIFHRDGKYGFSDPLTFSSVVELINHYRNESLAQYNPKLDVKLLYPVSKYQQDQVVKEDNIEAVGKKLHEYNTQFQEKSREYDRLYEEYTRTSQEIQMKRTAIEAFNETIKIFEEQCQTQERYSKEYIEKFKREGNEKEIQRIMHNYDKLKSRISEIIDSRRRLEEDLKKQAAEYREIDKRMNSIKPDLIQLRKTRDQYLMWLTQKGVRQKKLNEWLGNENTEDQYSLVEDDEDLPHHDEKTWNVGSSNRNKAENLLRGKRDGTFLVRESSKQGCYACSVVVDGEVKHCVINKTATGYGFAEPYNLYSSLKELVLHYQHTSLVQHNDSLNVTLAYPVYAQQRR

In the case of `Cc1cnc(-c2cc(-c3cncc(N4CCOCC4)c3)ccn2)[nH]1` [Example 97, 2′-(5-Methyl-1H-imidazol-2-yl)-5-morpholin-4-yl-3,4′-bipyridine], the IC50 was at most 50 nM in assay [1], at most 500 nM in assay [2] and 300 to 1000 nM in assay [3].
For `N#CCn1cc(-c2ccnc(-c3ncc(-c4ccccc4)[nH]3)c2)cn1` [Example 56, 2-(4-(2-(5-Phenyl-1H-imidazol-2-yl)pyridin-4-yl)-1H-pyrazol-1-yl)acetonitrile trifluoroacetate salt], the results for the IC50 in assay [1], in assay [2] and in assay [3] were at most 100 nM, at most 100 nM and at most 300 nM, respectively.
In the case of `Cc1nc(-c2cc(-c3cncc(C(=O)N4CCC(C(F)(F)F)C4)c3)ccn2)[nH]c1C` (racemic) [Example 178, 2′-(4,5-Dimethyl-1H-imidazol-2-yl)-5-{[3-(trifluoromethyl)pyrrolidin-1-yl]carbonyl}-3,4′-bipyridine trifluoroacetate salt], the IC50 was at most 50 nM in assay [1], at most 50 nM in assay [2] and at most 300 nM in assay [3].
On to `Cc1nc(-c2cc(-c3cncc(C(=O)NC(C)C)c3)ccn2)[nH]c1C` [Example 157, 2′-(4,5-Dimethyl-1H-imidazol-2-yl)-N-isopropyl-3,4′-bipyridine-5-carboxamide trifluoroacetate salt], for which the IC50 in assay [1] was at most 100 nM; in assay [2], at most 500 nM; in assay [3], 1000 to 5000 nM.
`Cc1[nH]c(-c2cc(-c3cncc(N4CCOCC4)c3)ccn2)nc1C(=O)N[C@@H](C)c1ccccc1` [Example 273, 5-Methyl-2-(5-morpholin-4-yl-3,4′-bipyridin-2′-yl)-N-[(1S)-1-phenylethyl]-1H-imidazole-4-carboxamide trifluoroacetate salt]: the IC50 in assay [1] was at most 50 nM; in assay [2] it was at most 50 nM; in assay [3] it was at most 300 nM.
As for `CCn1cc(-c2ccnc(-c3ncc(-c4ccccc4)[nH]3)c2)cn1` [Example 10, 4-(1-Ethyl-1H-pyrazol-4-yl)-2-(5-phenyl-1H-imidazol-2-yl)pyridine trifluoroacetate salt], the IC50 in assay [1] is at most 500 nM; in assay [2], at most 500 nM; in assay [3] it was 1000 to 5000 nM.
Regarding `COc1cncc(-c2ccnc(-c3nnc(-c4ccccc4)[nH]3)c2)c1` [Example 71, 5-Methoxy-2′-(5-phenyl-4H-1,2,4-triazol-3-yl)-3,4′-bipyridine], the IC50 in assay [1] was at most 500 nM; in assay [2], at most 500 nM; in assay [3] it was above 5000 nM.
On to `Cc1nc(-c2cc(-c3cncc(NC(C)c4ccccc4)c3)ccn2)[nH]c1C` (racemic) [Example 145C, 2′-(4,5-Dimethyl-1H-imidazol-2-yl)-N-(1-phenylethyl)-3,4′-bipyridin-5-amine trifluoroacetate salt], for which the IC50 in assay [1] was at most 50 nM; in assay [2], at most 50 nM; in assay [3], at most 300 nM.
Regarding `Cc1nc(-c2cc(-c3cncc(C(=O)NCc4ccccc4)c3)ccn2)[nH]c1C` [Example 192, N-Benzyl-2′-(4,5-dimethyl-1H-imidazol-2-yl)-3,4′-bipyridine-5-carboxamide trifluoroacetate salt], the IC50 in assay [1] was at most 100 nM; in assay [2], at most 100 nM; in assay [3] it was 1000 to 5000 nM.
As to `Cc1nc(-c2cc(C3=CCCN(S(=O)(=O)c4ccccc4)C3)ccn2)[nH]c1C` [Example 214, 2′-(4,5-Dimethyl-1H-imidazol-2-yl)-1-(phenylsulfonyl)-1,2,5,6-tetrahydro-3,4′-bipyridine Trifluoroacetate Salt], the values for the IC50 in assay [1], in assay [2] and in assay [3] were at most 50 nM, at most 500 nM and above 5000 nM, respectively.
The corresponding values for `CC(C)c1cnc(-c2cc(-c3cncc(S(C)(=O)=O)c3)ccn2)[nH]1` [Example 111, 2′-(5-Isopropyl-1H-imidazol-2-yl)-5-(methylsulfonyl)-3,4′-bipyridine trifluoroacetate salt] are at most 50 nM, at most 50 nM and 300 to 1000 nM.
Take `Cc1[nH]c(-c2cc(-c3cncc(N4CCOCC4)c3)ccn2)nc1C(=O)NC(C)(C)C` [Example 266, N-(tert-Butyl)-5-methyl-2-(5-morpholin-4-yl-3,4′-bipyridin-2′-yl)-1H-imidazole-4-carboxamide]: the figures for the IC50 in assay [1], in assay [2] and in assay [3] were at most 50 nM, at most 50 nM and at most 300 nM, respectively.
As to `Cc1[nH]c(-c2cc(-c3cncc(N4CCOCC4)c3)ccn2)nc1CCO` [Example 123, 2-[5-Methyl-2-(5-morpholin-4-yl-3,4′-bipyridin-2′-yl)-1H-imidazol-4-yl]ethanol], the IC50 was at most 50 nM in assay [1], at most 50 nM in assay [2] and at most 300 nM in assay [3].
For the compound `Cc1nc(-c2cc(-c3cncc(C(=O)N4CC(C#N)C4)c3)ccn2)[nH]c1C` [Example 153, 1-(2′-(4,5-Dimethyl-1H-imidazol-2-yl)-3,4′-bipyridine-5-carbonyl)azetidine-3-carbonitrile trifluoroacetate salt], the IC50 in assay [1] is at most 50 nM; in assay [2] it was at most 50 nM; in assay [3], at most 300 nM.
In the case of `COc1cncc(-c2ccnc(-c3ncc(C(C)C)[nH]3)c2)c1` [Example 84, 2′-(5-Isopropyl-1H-imidazol-2-yl)-5-methoxy-3,4′-bipyridine trifluoroacetate salt], the IC50 in assay [1] is at most 100 nM; in assay [2] it was at most 500 nM; in assay [3] it was 1000 to 5000 nM.
With `c1ccc(-c2cnc(-c3cc(-c4cncc(NCC5CCOCC5)c4)ccn3)[nH]2)cc1` [Example 141, 2′-(5-Phenyl-1H-imidazol-2-yl)-N-(tetrahydro-2H-pyran-4-ylmethyl)-3,4′-bipyridin-5-amine Trifluoroacetate Salt], the IC50 in assay [1] was at most 50 nM; in assay [2] it was at most 50 nM; in assay [3], above 5000 nM.
As to `Cc1[nH]c(-c2cc(-c3cncc(S(C)(=O)=O)c3)ccn2)nc1C(=O)N[C@@H]1CCOC1` [Example 256, 5-Methyl-2-[5-(methylsulfonyl)-3,4′-bipyridin-2′-yl]-N-[(3R)-tetrahydrofuran-3-yl]-1H-imidazole-4-carboxamide trifluoroacetate salt], the IC50 is at most 50 nM in assay [1], at most 50 nM in assay [2] and 1000 to 5000 nM in assay [3].
As to `CS(=O)(=O)c1cncc(-c2ccnc(-c3ncc(-c4ccccc4)[nH]3)c2)c1` [Example 40, 5-(Methylsulfonyl)-2′-(5-phenyl-1H-imidazol-2-yl)-3,4′-bipyridine trifluoroacetate salt], the figures for the IC50 in assay [1], in assay [2] and in assay [3] were at most 50 nM, at most 50 nM and at most 300 nM, respectively.
Consider `Cc1[nH]c(-c2cc(-c3cncc(N4CCOCC4)c3)ccn2)nc1C(=O)N[C@H]1CCN(Cc2ccccc2)C1` [Example 279, N-[(3S)-1-Benzylpyrrolidin-3-yl]-5-methyl-2-(5-morpholin-4-yl-3,4′-bipyridin-2′-yl)-1H-imidazole-4-carboxamide trifluoroacetate salt], for which the figures for the IC50 in assay [1], in assay [2] and in assay [3] were at most 100 nM, at most 50 nM and at most 300 nM, respectively.
Consider `COc1cncc(-c2ccnc(-c3ncc(C)[nH]3)c2)c1` [Example 77, 5-Methoxy-2′-(5-methyl-1H-imidazol-2-yl)-3,4′-bipyridine], for which the IC50 in assay [1] was at most 50 nM; in assay [2], at most 500 nM; in assay [3], 300 to 1000 nM.
For `Cc1nc(-c2cc(-c3cncc(C(=O)NCC4CCC4)c3)ccn2)[nH]c1C` [Example 206, N-(Cyclobutylmethyl)-2′-(4,5-dimethyl-1H-imidazol-2-yl)-3,4′-bipyridine-5-carboxamide trifluoroacetate salt], the IC50 in assay [1] is at most 100 nM; in assay [2], at most 100 nM; in assay [3] it was 1000 to 5000 nM.
Consider `COc1cncc(-c2ccnc(-c3ncc(C(F)(F)F)[nH]3)c2)c1` [Example 79, 5-Methoxy-2′-(5-(trifluoromethyl)-1H-imidazol-2-yl)-3,4′-bipyridine trifluoroacetate salt], for which the IC50 in assay [1] was at most 50 nM; in assay [2] it was at most 500 nM; in assay [3], above 5000 nM.
As for `Cc1[nH]c(-c2cc(-c3cncc(N4CCOCC4)c3)ccn2)nc1C(=O)NC1CCOCC1` [Example 269, 5-Methyl-2-(5-morpholin-4-yl-3,4′-bipyridin-2′-yl)-N-(tetrahydro-2H-pyran-4-yl)-1H-imidazole-4-carboxamide trifluoroacetate salt], the IC50 is at most 50 nM in assay [1], at most 50 nM in assay [2] and 300 to 1000 nM in assay [3].
For `COC1CN(C(=O)c2cncc(-c3ccnc(-c4nc(C)c(C)[nH]4)c3)c2)C1` [Example 199, 2′-(4,5-Dimethyl-1H-imidazol-2-yl)-5-[(3-methoxyazetidin-1-yl)carbonyl]-3,4′-bipyridine], the IC50 in assay [1] is at most 50 nM; in assay [2], at most 50 nM; in assay [3], at most 300 nM.
